What all share (assay type): cell-based
In one experiment the test system is A2780. Briefly: crystal violet proliferation assay. To be noted: Homo sapiens, 96 h, normoxia, read-out: GI50 CV mean. Here is the method:
(§1) Distinct MTT cell viability and crystal violet cell proliferation assays were performed to assess the cytotoxicity of the compounds 1–6 on 14 human cancer cell lines. In the viability assay, cells with intact mitochondria and thus active dehydrogenases are competent to convert MTT to the corresponding insoluble formazan. The formazan can be photometrically detected after solubilization and allows for indirect conclusions about the viability of the cells as an IC50 value. In the crystal violet assay, cells are stained by the binding of the dye to the chromatin, thus allowing for a quantification of biomass that remains adherent after a treatment in comparison with a control after a specific time. Potency is defined as the growth inhibitory concentration 50% (GI50).
(§2) The antiproliferative effect of the pentathiepins on human cancer cell lines was analyzed by crystal violet assay based on the protocol of a previous publication. […] After dissolving in ethanol, the optical density was measured. Here, 1000 cells (250 for LCLC-103H) in 0.1 mL of medium were seeded per well of a 96 well plate and incubated at standard conditions for 24 h prior to treatment to allow for adhesion of the cells. A serial dilution of the test compounds was prepared in medium, covering final concentrations from 10.0 to 0.04 µM and 0.1 mL of the working solution added to each well in triplicate. Additionally, samples for each cell line were seeded and directly fixed after 24 h to measure the cell density at the beginning of treatment (t0). Fixation was performed by replacing medium with 0.1 mL of a solution containing 1% glutaraldehyde in Dulbecco’s buffer (0.2 g/L KCl, 0.1 g/L MgSO4·7 H2O, 1.55 g/L Na2HPO4·7 H2O, 0.2 g/L KH2HPO4, and 8 g/L NaCl in water) for 20 min. Plates were stored in 0.1 mL of Dulbecco’s buffer until further processing. After 96 h of treatment, the same fixation process was applied to the plates containing cells and test compounds. To stain the cells, 0.1 mL of an aqueous solution of crystal violet (0.02%) was added per well for 20 min, then discarded and the plates afterwards rinsed in clear water for 30 min. The dye was extracted in 50 µL of ethanol per well during 2 h of shaking. The plates were read at λ = 570 nm using a SpectraMax 384plus (Molecular Devices, Sunnyvale, CA, USA), and the proliferation of the treatment conditions was calculated in relation to a solvent control sample after subtracting the background value of the T0-plates. The GI50 (half-maximal growth inhibitory concentration) was calculated via nonlinear regression followed by interpolation of the dose–response graphs in Prism 7 (GraphPad, San Diego, CA, USA).

For a further experiment, the system named is HAP-1.KO.GPx1. As to the kind of experiment: crystal violet proliferation assay. To be noted: Homo sapiens, 96 h, normoxia, read-out: GI50 CV mean. On the procedure: as §1, §2
Experiment [1] has as its system HAP-1. Briefly: crystal violet proliferation assay. To be noted: Homo sapiens, HAP1, 96 h, normoxia, read-out: GI50 CV mean. On the procedure: as §1, §2
For another experiment, the system named is RT-4. As to the kind of experiment: crystal violet proliferation assay. To be noted: Homo sapiens, 96 h, normoxia, read-out: GI50 CV mean. On the procedure:
as §1, §2

The subject of the next experiment is PATU-8902. Briefly: crystal violet proliferation assay. To be noted: Homo sapiens, 96 h, normoxia, read-out: GI50 CV mean. Here is the method: as §1, §2
For another experiment, the system named is LCLC-103H. As to the kind of experiment: crystal violet proliferation assay. Conditions: Homo sapiens, 96 h, normoxia, read-out: GI50 CV mean. On the procedure: as §1, §2
For the next experiment, the system named is Siso. As to the kind of experiment: crystal violet proliferation assay. To be noted: Homo sapiens, 96 h, normoxia, read-out: GI50 CV mean. Here is the method: as §1, §2
The subject of the next experiment is A-427. Briefly: crystal violet proliferation assay. To be noted: Homo sapiens, 96 h, normoxia, read-out: GI50 CV mean. Here is the method: as §1, §2
The test system of the next experiment is YAPC. As to the kind of experiment: crystal violet proliferation assay. Conditions: Homo sapiens, 96 h, normoxia, read-out: GI50 CV mean. On the procedure:
as §1, §2

Experiment [2] has as its system DanG. As to the kind of experiment: crystal violet proliferation assay. To be noted: Homo sapiens, 96 h, normoxia, read-out: GI50 CV mean. On the procedure: as §1, §2
A further experiment relates to Kyse-70. As to the kind of experiment: crystal violet proliferation assay. To be noted: Homo sapiens, 96 h, normoxia, read-out: GI50 CV mean. Here is the method: as §1, §2
The test system of experiment [3] is RT-112. As to the kind of experiment: crystal violet proliferation assay. To be noted: Homo sapiens, 96 h, normoxia, read-out: GI50 CV mean. On the procedure:
as §1, §2

The test system of the next experiment is A2780cis. As to the kind of experiment: crystal violet proliferation assay. Conditions: Homo sapiens, 96 h, normoxia, read-out: GI50 CV mean. Here is the method:
as §1, §2

The subject of experiment [4] is HAP-1. Briefly: MTT cell viability assay. Conditions: Homo sapiens; for IC50: HAP1, 48 h; for IC90: HAP1, calculated via GraphPad QuickCalcs from MTT IC50 and slope factor. Here is the method: as §1
(§3) In addition to performing the cell viability assay under normoxia (19% atmospheric oxygen), incubations were also conducted under hypoxic conditions, i.e., atmospheric oxygen levels of 1% during the treatment for 48 h. Hypoxia is a favorable condition of the tumor microenvironment that is connected with poor outcome. Therefore, the low oxygen condition mimics better the tumor environment. The biological effect of the pentathiepins under this condition provides insight into their dependency for oxygen, which has been postulated a key component in the proposed mechanism of action (Figure 3). Consistent with the proposed mechanism of action for five of the compounds, potency decreased under hypoxic conditions; in fact for 6, the half-maximal inhibitory concentration exceeded the highest tested concentration of 10 µM in four cell lines (Figure 6, Table S3). […] In contrast to the other compounds, in some cell lines, the cytotoxic effects of 1 were more pronounced under oxygen-reduced incubation conditions (Figure 6), indicating a tangential role of oxygen availability for this pentathiepin. Especially for the breast cancer cell line MCF-7, the cytotoxicity increased substantially, indicated by a decrease of the IC50 from >10.0 µM to about 1.0 µM.
(§4) The effect of the pentathiepins on the viability of the cell lines was assessed via an MTT assay, performed as previously described. Healthy and viable cells convert the yellow soluble 3-(4,5-dimethylthiazol-2-yl)-2,5-diphenyltetrazolium bromide to the insoluble purple corresponding formazan, which can be spectrophotometrically measured. For this assay, 5000 cells (1 250 for LCLC-103H) in 0.1 mL of medium were seeded per well of a 96-well plate and incubated at standard conditions for 24 h prior to treatment. A serial dilution of the test compounds was prepared in medium, covering final concentrations from 10.0 to 0.04 µM, and 0.1 mL of the working solution was added to each well in triplicate. After 48 h, 20 µL of a 2.5 mg/mL MTT in PBS solution was pipetted into each well and further incubated for 4 h at standard conditions. Thereafter, medium was replaced with 50 µL DMSO, and the plates were put on a shaker for 5 min and subsequently read at λ = 570 nm, with a SpectraMax 384plus (Molecular Devices, Sunnyvale, CA, USA). The cell viabilities of the treatment conditions were calculated in relation to a solvent control sample. The absolute IC50 was calculated via nonlinear regression followed by interpolation of the dose–response graphs in Prism 7 (GraphPad, San Diego, CA, USA). The IC90 was derived from the IC50 by using the slope factor of the dose–response graph with the tool QuickCalcs from GraphPad (GraphPad Software, San Diego, CA, USA).

In experiment [5] the test system is DanG. Briefly: MTT cell viability assay. Conditions: Homo sapiens; for IC50: 48 h; for IC90: calculated via GraphPad QuickCalcs from MTT IC50 and slope factor. Here is the method: as §1, §3, §4
Experiment [6] deals with RT-112. Briefly: MTT cell viability assay. To be noted: Homo sapiens, 48 h. Here is the method:
as §1, §3, §4
For orientation: Tetrazolium assays rely on reduction of a dye to a coloured formazan, in cell work by metabolically active cells.

Setting [7] is: hypoxic (1% O2), read-out: IC50 MTT-H mean.
[8] abbreviates: normoxic (19% O2), read-out: IC50 MTT-N mean.

Read-outs that look alike come from different tables or passages of the source.

One may read the GI50 as the concentration that inhibits growth by half. As a reminder, the IC50 is the midpoint of a concentration-inhibition curve. The IC90 is the concentration at which the effect reaches the 90% level.

For the molecule `CCOc1c2c(c3cnc4[nH]c(-c5ccc(OC)cc5)cc4n13)SSSSS2` [Compound 1, 11-Ethoxy-2-(4-methoxyphenyl)-3H-[1,2,3,4,5]pentathiepino[6′,7′:3,4]pyrrolo[1,2-a]pyrrolo[2,3-e]pyrazine], the GI50 with A2780 is 236 nM; in the experiment on HAP-1.KO.GPx1, 313 nM; with HAP-1 [1] it was 339 nM; in the experiment with RT-4, 373 nM; with PATU-8902 it was 480 nM; in the experiment with LCLC-103H, 441 nM. Besides, the GI50 in the experiment on Siso was 256 nM; with A-427 it was 306 nM; in the experiment on YAPC, 405 nM; in the experiment with DanG [2] it was 340 nM; in the experiment on Kyse-70, 264 nM; in the experiment with RT-112 [3] it was 465 nM. Also, the GI50 with A2780cis was 228 nM. Moreover, the IC50 with HAP-1 [4] (setting [7]) was 384 nM; in the experiment with HAP-1 [4] (setting [8]) it was 398 nM; with DanG [5] (setting [7]), 478 nM; with DanG [5] (setting [8]), 1110 nM; with RT-112 [6] (setting [7]) it was 306 nM; in the experiment with RT-112 [6] (setting [8]), 399 nM. Further, the values for the IC90 in the experiment on HAP-1 [4] and in the experiment on DanG [5] were 710 nM and 1710 nM, respectively.
In the case of `CCOc1c2c(c3ccc(C(=O)N4CCCCC4)cn13)SSSSS2` [Compound 2, (6-Ethoxy-[1,2,3,4,5]pentathiepino[6,7-a]indolizin-9-yl)(piperidinyl)methanone], the 50% growth inhibitory concentration (GI50) in the experiment with A2780 was found to be 164 nM; in the experiment with HAP-1.KO.GPx1, 173 nM; in the experiment on HAP-1 [1], 161 nM; with RT-4, 1520 nM; with PATU-8902, 659 nM; in the experiment with LCLC-103H, 552 nM. The concentration for 50% growth inhibition (GI50) in the experiment on Siso came out at 423 nM; in the experiment on A-427 it was 401 nM; with YAPC it was 628 nM; with DanG [2], 644 nM; in the experiment on Kyse-70, 409 nM; in the experiment with RT-112 [3], 559 nM. The GI50 in the experiment on A2780cis was determined as 234 nM. In addition, the IC50 with HAP-1 [4] (setting [7]) amounted to 847 nM; with HAP-1 [4] (setting [8]), 600 nM; with DanG [5] (setting [7]) it was 4350 nM; with DanG [5] (setting [8]), 1990 nM; in the experiment with RT-112 [6] (setting [7]), 1720 nM; with RT-112 [6] (setting [8]) it was 1340 nM. The IC90 is 1180 nM in the experiment with HAP-1 [4] and 3060 nM in the experiment with DanG [5].
As to `CCOc1c2c(c3ccc(C(=O)N4CCOCC4)cn13)SSSSS2` [Compound 3, (6-Ethoxy-[1,2,3,4,5]pentathiepino[6,7-a]indolizin-9-yl)(morpholino)methanone], the GI50 came out at 55 nM in the experiment on A2780; 68 nM in the experiment with HAP-1.KO.GPx1; 64 nM in the experiment on HAP-1 [1]; 193 nM in the experiment on RT-4; 257 nM in the experiment with PATU-8902; 128 nM with LCLC-103H. Moreover, the GI50 was determined as 166 nM with Siso; 142 nM with A-427; 350 nM in the experiment on YAPC; 382 nM with DanG [2]; 142 nM in the experiment on Kyse-70; 246 nM with RT-112 [3]. For the same molecule, in the experiment on A2780cis, the GI50 turned out to be 88 nM. Besides, the IC50 with HAP-1 [4] (setting [7]) came to 657 nM; with HAP-1 [4] (setting [8]) it was 263 nM; in the experiment on DanG [5] (setting [7]) it was 2660 nM; in the experiment with DanG [5] (setting [8]), 1450 nM; in the experiment on RT-112 [6] (setting [7]), 1470 nM; with RT-112 [6] (setting [8]), 1050 nM. Also, the results for the IC90 in the experiment on HAP-1 [4] and in the experiment with DanG [5] were 620 nM and 2540 nM, respectively.
For the molecule `CCOc1c2c(c3ccc(C(=O)N(CC)CC)cn13)SSSSS2` [Compound 4, 6-Ethoxy-N,N’-diethyl-[1,2,3,4,5]pentathiepino[6,7-a]indolizine-9-carboxamide], the GI50 with A2780 was 106 nM; in the experiment with HAP-1.KO.GPx1, 116 nM; in the experiment on HAP-1 [1] it was 84 nM; in the experiment with RT-4 it was 445 nM; with PATU-8902, 471 nM; with LCLC-103H, 306 nM. Also, the GI50 came out at 381 nM with Siso; 310 nM in the experiment on A-427; 608 nM with YAPC; 459 nM in the experiment on DanG [2]; 284 nM in the experiment on Kyse-70; 469 nM in the experiment with RT-112 [3]. The GI50 in the experiment on A2780cis is 173 nM. Moreover, the IC50 came to 832 nM with HAP-1 [4] (setting [7]); 263 nM with HAP-1 [4] (setting [8]); 4460 nM in the experiment with DanG [5] (setting [7]); 1650 nM in the experiment with DanG [5] (setting [8]); 1780 nM in the experiment with RT-112 [6] (setting [7]); 1200 nM with RT-112 [6] (setting [8]). For the same molecule, the IC90 with HAP-1 [4] is 510 nM; with DanG [5], 2710 nM.

(Values after publication PMC8305076, “Comprehensive Evaluation of Biological Effects of Pentathiepins on Various Human Cancer Cell Lines and Insights into Their Mode of Action” (International Journal of Molecular Sciences, 2021).)
